# Results published in patent US10450549B2, “Aryloxyphenoxypropionate tolerance in turfrgass species and use of AAD1 as a selectable marker” (Dow AgroSciences, LLC, priority 2004, dated 2019).
# What was measured:
# Assay type in all cases: in vivo, Arabidopsis thaliana
# wt ARBTH = assay: In vitro plate test of herbicide cross resistance: wild-type Arabidopsis; conditions: 7 days
# Method: The ability of AAD1 (v3) to provide resistance to other aryloxyphenoxyalkanoate herbicides in transgenic Arabidopsis was determined using a modified in vitro plate assay. Seeds from wild-type Arabidopsis thaliana as well as Arabidopsis thaliana containing the plant optimized AAD1 (v3) gene (T4 homozygous plants id=PAAD1.315.064) were sterilized by agitating for 10 min in a 50% bleach solution. These seeds were then rinsed four times with sterile water to remove the bleach.
# Dose response assays utilized a nutrient media (see below) supplemented with various rates of test compounds. The test compounds were added to the heated media (55° C.) as concentrated solutions in DMSO. Control wells had the appropriate amount of DMSO without any additional compound. The final concentration of DMSO never exceeded 1% (v/v). After thorough mixing, a 6 mL aliquot of the warm media containing the appropriate concentration of compound was added to each well of a 6-well, flat bottom, polystyrene tissue culture tray (Falcon 353046, Becton Dickson and Company, Franklin Lakes, N.J.). After the media solidified, approximately 20 to 30 Arabidopsis seeds were applied on top of the solidified media and the remaining 2 mL of media was poured over the seeds. The plates were lightly agitated to disperse the seeds, covered and allowed to cool until the media had completely solidified. The plates were incubated for 7 days at 25° C. under continual fluorescent lighting (75 μE m^−2 s^−1). Nutrient Media Composition was as described in Example 2.2 and in Somerville and Orgen (1982).
# Assessment of Growth Reduction. The apical portion of the Arabidopsis plants grown in the treated media was assessed visually relative to the apical portion of the plants grown in the media containing only DMSO. Values were recorded as % growth reduction. Assessments of root growth inhibition of the Arabidopsis plants grown in the treated media were achieved by carefully extracting the plants from the media and measuring the length of the root. These root lengths were then compared to the root length of the control plants to determine a % growth reduction. A minimum of five plants were assessed for each treatment. The values recorded are an average of all the plants assessed. The calculated concentration to reach 50% inhibition effect (I50) were determined for both root and shoots of wildtype and AAD1-transformed Arabidopsis. The ratios of resistant to sensitive biotypes are included in Table 19. A ratio>2 for both root and shoot measurements generally signifies significant resistance. The higher the ratio, the greater the level of resistance. […] The broad phenoxy auxin resistance is the first reported in planta.
# Wildtype Arabidopsis = assay: T1 Arabidopsis spray test, % visual injury 2 WAT: wildtype control; conditions: Wildtype, 2 WAT; for % Injury 20-40% / % Injury <20% / % Injury >40%: number of individuals
# Description: (§1) Random individual T1 plants selected for glufosinate resistance above were confirmed for expression of the PAT protein using a PAT ELISA kit (Part no. 7000045, Strategic Diagnostics, Inc., Newark, Del.) to non-destructively confirm fidelity of selection process (manufacturer's protocol). Plants were then randomly assigned to various rates of phenoxy herbicides (dichlorprop or 2,4-D). […] Elevated rates were applied in subsequent trials (50, 200, 800, or 3200 g ae/ha).
# (§2) All auxin herbicide applications were made using the DeVilbiss sprayer as described above to apply 703 L/ha spray volume (0.4 ml solution/3-inch pot) or applied by track sprayer in a 187 L/ha spray volume. […] Dichlorprop used was technical grade (Sigma, St. Louis, Mo.) dissolved in DMSO and diluted in water (<1% DMSO final concentration). As herbicide rates increased beyond 800 g ae/ha, the pH of the spray solution became exceedingly acidic, burning the leaves of young, tender Arabidopsis plants and complicating evaluation of the primary effects of the herbicides. It became standard practice to apply these high rates of phenoxy herbicides in 200 mM Tris buffer (pH 9.0) to a final pH of ˜7-8.
# (§3) Although Arabidopsis, being a dicot, is not an optimal system for testing ACCase-inhibiting AOPP grass herbicides, AAD1 (v3)-transformed T1 plants were subjected to elevated rates (400-1600 g ae/ha) of RS-haloxyfop acid (internally synthesized) that do cause growth abnormalities and death of wildtype Arabidopsis using the DeVilbiss sprayer as described above. Injury ratings were taken 7 and 14 days after treatment. Likewise, T1 individuals were treated with the pyridyloxyacetate auxin herbicide, fluroxypyr.
# (§4) Table 16. […] Response is presented in terms of % visual injury 2 WAT. […] Since each T1 is an independent transformation event, one can expect significant variation of individual T1 responses within a given rate. An arithmetic mean and standard deviation is presented for each treatment. The range in individual response is also indicated in the last column for each rate and transformation. PAT/Cry1F-transformed Arabidopsis served as an auxin-sensitive transformed control. Wildtype Arabidopsis is untransformed.
# (§5) Table 17. T1 Arabidopsis response to a range of dichlroprop rates applied postemergence. Response is presented in terms of % visual injury 2 WAT. […] Since each T1 is an independent transformation event, one can expect significant variation of individual T1 responses within a given rate. An arithmetic mean and standard deviation is presented for each treatment. The range in individual response is also indicated in the last column for each rate and transformation. PAT/Cry1F-transformed Arabidopsis served as an auxin-sensitive transformed control. Wildtype Arabidopsis is untransformed.
# as §5, with “18.” for “17.”, “haloxyfop” for “dichlroprop”, “postemergence at artificially high rates attempting to show tolerance of the dicot Arabidopsis to the graminicide.” for “postemergence.”
# [1] = system: PAT/Cry1F-transformed Arabidopsis; assay: T1 Arabidopsis spray test, % visual injury 2 WAT: PAT/Cry1F transformed control; conditions: PAT/Cry1F; for % Injury 20-40% / % Injury <20% / % Injury >40%: number of individuals
# Description: as §1, §2, §3, §4, §5
# as §5, with “18.” for “17.”, “haloxyfop” for “dichlroprop”, “postemergence at artificially high rates attempting to show tolerance of the dicot Arabidopsis to the graminicide.” for “postemergence.”
smiles,measurement,setting,value
Nc1c(Cl)c(F)nc(OCC(=O)O)c1Cl [Fluroxypyr],wt ARBTH root 150,wt ARBTH; root,0.2 ppm
same,wt ARBTH shoot 150,wt ARBTH; shoot,2 ppm
CC(Oc1ccc(Oc2ncc(C(F)(F)F)cc2Cl)cc1)C(=O)O (stereo not shown) [haloxyfop],% Injury Ave,Wildtype Arabidopsis; 100 g ae/ha,0.0%
same,% Injury Range,Wildtype Arabidopsis; 100 g ae/ha,0%
same,% Injury Ave,Wildtype Arabidopsis; 200 g ae/ha,0.0%
same,% Injury Range,Wildtype Arabidopsis; 200 g ae/ha,0%
same,% Injury Ave,Wildtype Arabidopsis; 400 g ae/ha,20.0%
same,% Injury Range,Wildtype Arabidopsis; 400 g ae/ha,20%
same,% Injury Ave,Wildtype Arabidopsis; 800 g ae/ha,73.3%
same,% Injury Range,Wildtype Arabidopsis; 800 g ae/ha,70-85%
same,% Injury Ave,Wildtype Arabidopsis; 1600 g ae/ha,93.3%
same,% Injury Range,Wildtype Arabidopsis; 1600 g ae/ha,80-100%
same,% Injury 20-40%,Wildtype Arabidopsis; 100 g ae/ha,0
same,% Injury <20%,Wildtype Arabidopsis; 100 g ae/ha,3
same,% Injury >40%,Wildtype Arabidopsis; 100 g ae/ha,0
same,% Injury 20-40%,Wildtype Arabidopsis; 200 g ae/ha,0
same,% Injury <20%,Wildtype Arabidopsis; 200 g ae/ha,3
same,% Injury >40%,Wildtype Arabidopsis; 200 g ae/ha,0
same,% Injury 20-40%,Wildtype Arabidopsis; 400 g ae/ha,3
same,% Injury <20%,Wildtype Arabidopsis; 400 g ae/ha,0
same,% Injury >40%,Wildtype Arabidopsis; 400 g ae/ha,0
same,% Injury 20-40%,Wildtype Arabidopsis; 800 g ae/ha,0
same,% Injury <20%,Wildtype Arabidopsis; 800 g ae/ha,0
same,% Injury >40%,Wildtype Arabidopsis; 800 g ae/ha,3
same,% Injury 20-40%,Wildtype Arabidopsis; 1600 g ae/ha,0
same,% Injury <20%,Wildtype Arabidopsis; 1600 g ae/ha,0
same,% Injury >40%,Wildtype Arabidopsis; 1600 g ae/ha,3
same,% Injury Ave,[1]; 100 g ae/ha,0.0%
same,% Injury Range,[1]; 100 g ae/ha,0%
same,% Injury Ave,[1]; 200 g ae/ha,10.0%
same,% Injury Range,[1]; 200 g ae/ha,10%
same,% Injury Ave,[1]; 400 g ae/ha,27.5%
same,% Injury Range,[1]; 400 g ae/ha,20-30%
same,% Injury Ave,[1]; 800 g ae/ha,78.8%
same,% Injury Range,[1]; 800 g ae/ha,70-85%
same,% Injury Ave,[1]; 1600 g ae/ha,47.5%
same,% Injury Range,[1]; 1600 g ae/ha,80-100%
same,% Injury 20-40%,[1]; 100 g ae/ha,0
same,% Injury <20%,[1]; 100 g ae/ha,4
same,% Injury >40%,[1]; 100 g ae/ha,0
same,% Injury 20-40%,[1]; 200 g ae/ha,0
same,% Injury <20%,[1]; 200 g ae/ha,4
same,% Injury >40%,[1]; 200 g ae/ha,0
same,% Injury 20-40%,[1]; 400 g ae/ha,4
same,% Injury <20%,[1]; 400 g ae/ha,0
same,% Injury >40%,[1]; 400 g ae/ha,0
same,% Injury 20-40%,[1]; 800 g ae/ha,0
same,% Injury <20%,[1]; 800 g ae/ha,0
same,% Injury >40%,[1]; 800 g ae/ha,4
same,% Injury 20-40%,[1]; 1600 g ae/ha,0
same,% Injury <20%,[1]; 1600 g ae/ha,0
same,% Injury >40%,[1]; 1600 g ae/ha,4
